Reference: ChEMBL document CHEMBL4433201, “Progress in the development of selective heme oxygenase-1 inhibitors and their potential therapeutic application” (Eur J Med Chem, 2019)

Experiments:
Heme oxygenase 1 [1] = biological target: T1, Heme oxygenase 1 (Rattus norvegicus, UniProt P06762); test: Inhibition of HO-1 in Sprague-Dawley rat spleen microsomes using NADPH as substrate preincubated for 10 mins followed by substrate addition and measured after 15 mins by GC analysis
T1 sequence (P06762 whole entry): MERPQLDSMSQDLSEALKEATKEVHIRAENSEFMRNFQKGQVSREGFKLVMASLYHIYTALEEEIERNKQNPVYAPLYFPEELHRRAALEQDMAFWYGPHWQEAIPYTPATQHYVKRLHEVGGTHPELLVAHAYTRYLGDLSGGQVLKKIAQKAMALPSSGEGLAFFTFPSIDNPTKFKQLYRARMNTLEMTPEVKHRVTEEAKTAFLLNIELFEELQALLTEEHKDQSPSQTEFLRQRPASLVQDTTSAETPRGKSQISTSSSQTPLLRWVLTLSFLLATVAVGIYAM

Heme oxygenase 2 [2] = biological target: T2, Heme oxygenase 2 (Rattus norvegicus, UniProt P23711); test: Inhibition of HO-2 in Sprague-Dawley rat brain microsomes using NADPH as substrate preincubated for 10 mins followed by substrate addition and measured after 15 mins by GC analysis
T2 sequence (P23711 whole entry): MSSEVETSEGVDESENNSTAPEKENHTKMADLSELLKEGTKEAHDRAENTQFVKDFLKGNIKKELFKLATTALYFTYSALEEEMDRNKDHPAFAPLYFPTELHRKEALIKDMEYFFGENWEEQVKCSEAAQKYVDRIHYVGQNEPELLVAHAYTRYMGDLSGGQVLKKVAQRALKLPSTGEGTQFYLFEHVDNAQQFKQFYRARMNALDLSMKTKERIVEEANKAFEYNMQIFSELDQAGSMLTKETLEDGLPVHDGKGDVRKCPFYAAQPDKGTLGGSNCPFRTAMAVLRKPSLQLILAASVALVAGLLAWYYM

Heme oxygenase 1 [3] = biological target: T1, Heme oxygenase 1; test: Inhibition of HO-1 in Sprague-Dawley rat spleen microsomes using NADPH as substrate incubated for 60 mins by spectrometry based assay
Heme oxygenase 2 [4] = biological target: T3, Heme oxygenase 2 (Homo sapiens, UniProt P30519); test: Inhibition of HO-2 (unknown origin)
T3 sequence (P30519 whole entry): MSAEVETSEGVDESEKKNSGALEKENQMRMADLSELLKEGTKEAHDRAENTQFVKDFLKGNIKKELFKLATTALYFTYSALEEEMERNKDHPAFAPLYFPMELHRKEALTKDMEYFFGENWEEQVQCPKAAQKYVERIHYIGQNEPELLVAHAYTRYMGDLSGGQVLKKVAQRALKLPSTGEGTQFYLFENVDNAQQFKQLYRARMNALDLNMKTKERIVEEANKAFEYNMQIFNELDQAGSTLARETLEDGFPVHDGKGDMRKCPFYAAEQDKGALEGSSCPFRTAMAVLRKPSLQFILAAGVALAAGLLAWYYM

Heme oxygenase 1 [5] = biological target: T4, Heme oxygenase 1 (Homo sapiens, UniProt P09601); test: Inhibition of human recombinant HO-1 by spectrometry based assay
T4 sequence (P09601 whole entry): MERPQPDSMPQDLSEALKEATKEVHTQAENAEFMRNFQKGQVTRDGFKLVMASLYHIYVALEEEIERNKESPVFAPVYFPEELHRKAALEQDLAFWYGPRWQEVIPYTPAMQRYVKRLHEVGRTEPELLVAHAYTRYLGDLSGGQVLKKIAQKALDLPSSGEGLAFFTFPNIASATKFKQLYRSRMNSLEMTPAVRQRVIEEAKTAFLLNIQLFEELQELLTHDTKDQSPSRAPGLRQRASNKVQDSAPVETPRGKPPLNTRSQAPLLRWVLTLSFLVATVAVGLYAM

[6] = Growth inhibition of […] B16 cells incubated for 72 hrs by sulforhodamine B assay; assay type: functional; settings: B16, 72 h

SMILES | IC50 (Heme oxygenase 1 [1]) | IC50 (Heme oxygenase 2 [2]) | further results
c1ccc(OCCn2ccnc2)cc1 |  |  | IC50 (Heme oxygenase 1 [3]): 28 µM
O=[N+]([O-])c1ccc(C(O)Cn2ccnc2)cc1 (stereo not given) |  |  | IC50 (Heme oxygenase 1 [3]): 10 µM
O=C(Cn1ccnc1)C12CC3CC(CC(C3)C1)C2 |  |  | IC50 (Heme oxygenase 2 [4]): > 100 µM
Brc1cccc(OCCCCn2ccnc2)c1 |  |  | IC50 (Heme oxygenase 2 [4]): 2.2 µM
c1ccc(COc2ccc(CCn3ccnc3)cc2)cc1 |  |  | IC50 (Heme oxygenase 1 [5]): 0.9 µM
O=C(Cn1ccnc1)c1ccc(Br)cc1 |  |  | IC50 (Heme oxygenase 1 [3]): 2.5 µM
Brc1ccc(CCC2(Cn3ccnc3)OCCO2)cc1 |  |  | IC50 (Heme oxygenase 1 [5]): 1.9 µM; IC50 (Heme oxygenase 2 [4]): > 100 µM
OC(Cn1ccnc1)c1ccc(-c2ccc(Br)cc2)cc1 (stereo not given) |  |  | IC50 (Heme oxygenase 1 [5]): 0.06 µM
FC(F)(F)c1ccc(COc2ccc(CCn3ccnc3)cc2)cc1 |  |  | IC50 (Heme oxygenase 1 [5]): 54 µM
OC(Cn1ccnc1)c1cccc(Br)c1 (stereo not given) |  |  | IC50 [6]: 37 µM
Brc1ccc(CCCCn2ccnc2)cc1 |  |  | IC50 (Heme oxygenase 1 [5]): 0.25 µM
Brc1ccc(OCCCCCCn2ccnc2)cc1 |  |  | IC50 (Heme oxygenase 1 [3]): 10 µM
COc1ccc2[nH]c(=O)c(-c3nc(-c4ccccc4)c(-c4ccccc4)[nH]3)cc2c1 |  |  | IC50 (Heme oxygenase 1 [3]): 9.2 µM

More lines, main results first:

IC50 (Heme oxygenase 1 [1]) | IC50 (Heme oxygenase 2 [2]) | SMILES | further results
> 100 µM | 5.1 µM | Brc1ccc(Cn2c(CC3CC4CCC3C4)nc3ccccc32)cc1 (stereo not given) | 
> 100 µM | 5.4 µM | Clc1ccc(Cn2c(CC3CCCCC3)nc3ccccc32)cc1 | 
32.4 µM | 3.3 µM | Clc1ccc(Cn2c(CC3CCCC3)nc3ccccc32)cc1 | 
2.7 µM | 4.2 µM | Brc1ccc(Cn2c(Cn3ccnc3)nc3ccccc32)cc1 | 
> 100 µM | 5.4 µM | Brc1ccc(Cn2c(CC3CCCCC3)nc3ccccc32)cc1 | 
> 100 µM | 31.9 µM | Clc1ccc(Cn2c(CN3CCOCC3)nc3ccccc32)cc1 | 
> 100 µM | 4.3 µM | Clc1ccc(Cn2c(CC3CC4CCC3C4)nc3ccccc32)cc1 (stereo not given) | 
> 100 µM | 30.1 µM | Brc1ccc(Cn2c(CN3CCOCC3)nc3ccccc32)cc1 | 
